Reference: patent US20110152333A1, “3-CYANOPYRROLIDINYL-PHENYL-OXAZOLIDINONES AS ANTIBACTERIAL AGENTS” (FERRER INTERNACIONAL, S.A., priority 2008, published 2011)
Values after ≈ are worked out from the molar mass of the structure shown. Like-named read-outs stand apart in the source and are kept apart here.

Columns and labels:
[1] = system: Gram+; assay: Geometric mean MIC, Gram+; type: cell-based; conditions: Table 2, read-out: Geom. Mean MIC Gram+
[2] = system: S. aureus ATCC33591 in vivo; assay: MIC, micro dilution (NCCLS M7-A5); type: cell-based; conditions: Staphylococcus aureus, Table 2
[3] = system: E. faecalis ECFL-1; assay: MIC, micro dilution (NCCLS M7-A5); type: cell-based; conditions: Enterococcus faecalis, ECFL1, Table 2
[4] = system: S. pneumoniae ATCC49619 PR; assay: MIC, micro dilution (NCCLS M7-A5); type: cell-based, Streptococcus pneumoniae
[5] = system: E. faecium ECFM-2; assay: MIC, micro dilution (NCCLS M7-A5); type: cell-based; conditions: Enterococcus faecium, ECFM2, Table 2
[6] = system: S. aureus 199B; assay: MIC, micro dilution (NCCLS M7-A5); type: cell-based; conditions: Staphylococcus aureus, Table 2
[7] = system: E. faecium LNZ-R LR-4; assay: MIC, micro dilution (NCCLS M7-A5); type: cell-based, Enterococcus faecium
[8] = system: E. coli KAM-3; assay: MIC, micro dilution (NCCLS M7-A5); type: cell-based; conditions: Escherichia coli, KAM3, Table 2
[9] = system: Staphyl.; assay: Geometric mean MIC, staphylococci; type: cell-based; conditions: Table 2, read-out: Geom. Mean MIC Staphyl.
[10] = system: E. faecalis ATCC29212; assay: MIC, micro dilution (NCCLS M7-A5); type: cell-based; conditions: Enterococcus faecalis, Table 2
[11] = system: S. Haemolyticus; assay: MIC, micro dilution (NCCLS M7-A5); type: cell-based; conditions: Staphylococcus haemolyticus, Table 2
[12] = system: S. aureus ATCC43300 MR; assay: MIC, micro dilution (NCCLS M7-A5); type: cell-based; conditions: Staphylococcus aureus, Table 2
[13] = system: E. faecium ECFM-1-128; assay: MIC, micro dilution (NCCLS M7-A5); type: cell-based; conditions: Enterococcus faecium, ECFM1128, Table 2
[14] = system: E. faecalis ECFL-1-128; assay: MIC, micro dilution (NCCLS M7-A5); type: cell-based; conditions: Enterococcus faecalis, ECFL1128, Table 2
[15] = system: E. coli TG1; assay: MIC, micro dilution (NCCLS M7-A5); type: cell-based; conditions: Escherichia coli, Table 2
[16] = system: E. faecium ATCC10541; assay: MIC, micro dilution (NCCLS M7-A5); type: cell-based; conditions: Enterococcus faecium, Table 2
[17] = system: E. faecalis ATCC51575 MDR; assay: MIC, micro dilution (NCCLS M7-A5); type: cell-based; conditions: Enterococcus faecalis, Table 2
[18] = system: S. aureus clinical strain cfr. methylase; assay: MIC, micro dilution (NCCLS M7-A5); type: cell-based; conditions: Staphylococcus aureus, Table 2
[19] = system: S. epidermidis ATCC12228 MR; assay: MIC, micro dilution (NCCLS M7-A5); type: cell-based; conditions: Staphylococcus epidermidis, Table 2
[20] = system: S. aureus 1199B NorA overE; assay: MIC, micro dilution (NCCLS M7-A5); type: cell-based; conditions: Staphylococcus aureus
[21] = system: MRSE; assay: MIC, micro dilution (NCCLS M7-A5); type: cell-based; conditions: Staphylococcus epidermidis, Table 2
[22] = system: MRSE-128; assay: MIC, micro dilution (NCCLS M7-A5); type: cell-based; conditions: Table 2
[23] = system: S. pneumoniae ATCC6303 in vivo; assay: MIC, micro dilution (NCCLS M7-A5); type: cell-based; conditions: Streptococcus pneumoniae, Table 2
[24] = system: Enteroc.; assay: Geometric mean MIC, enterococci; type: cell-based; conditions: Table 2, read-out: Geom. Mean MIC Enteroc.
[25] = system: S. aureus 1199; assay: MIC, micro dilution (NCCLS M7-A5); type: cell-based; conditions: Staphylococcus aureus, Table 2
[26] = system: S. aureus ATCC25923 MS; assay: MIC, micro dilution (NCCLS M7-A5); type: cell-based, Staphylococcus aureus
[27] = system: E. faecium ECFM-1; assay: MIC, micro dilution (NCCLS M7-A5); type: cell-based; conditions: Enterococcus faecium, ECFM1, Table 2
[28] = system: E. faecalis ECFL-2; assay: MIC, micro dilution (NCCLS M7-A5); type: cell-based; conditions: Enterococcus faecalis, ECFL2, Table 2
[29] = system: E. faecium ATCC51559 MDR; assay: MIC, micro dilution (NCCLS M7-A5); type: cell-based, Enterococcus faecium
[30] = system: Moraxella catarrhalis HCI-78; assay: MIC, micro dilution (NCCLS M7-A5); type: cell-based; conditions: HCI78, Table 1, 5% CO2
[31] = system: S. aureus LNZ-R 432; assay: MIC, micro dilution (NCCLS M7-A5); type: cell-based; conditions: Staphylococcus aureus, LNZR432, Table 1
[32] = system: H. influenzae ATCC49247; assay: MIC, micro dilution (NCCLS M7-A5); type: cell-based, Haemophylus influenzae; conditions: Haemophilus influenzae, Table 1
[33] = system: B. fragilis sp. fragilis ATCC25285; assay: MIC, micro dilution (NCCLS M7-A5); type: cell-based; conditions: Bacteroides fragilis, Table 1, Brucella Blood medium for anaerobic strains
[34] = system: Moraxella, Pasteurella and Bacteroides spp.; conditions: background; cited from earlier work
[35] = Enterococcus faecium, Table 2, read-out: MIC
[36] = Streptococcus pneumoniae, Table 1, 5% CO2, read-out: MIC
[37] = Enterococcus faecium, Table 1, read-out: MIC
[38] = Staphylococcus aureus, Table 1, read-out: MIC

| Structure (SMILES) | MIC [2] [µg/mL] | MIC [3] [µg/mL] | MIC [5] [µg/mL] | MIC [6] [µg/mL] | MIC [8] [µg/mL] | MIC [9] [µg/mL] | MIC [10] [µg/mL] | MIC [11] [µg/mL] | MIC [12] [µg/mL] | MIC [13] [µg/mL] | MIC [14] [µg/mL] | MIC [15] [µg/mL] | MIC [16] [µg/mL] | MIC [17] [µg/mL] | MIC [18] [µg/mL] | MIC [19] [µg/mL] | MIC [20] [µg/mL] | MIC [21] [µg/mL] | MIC [22] [µg/mL] | MIC [23] [µg/mL] | further results |
| --- | --- | --- | --- | --- | --- | --- | --- | --- | --- | --- | --- | --- | --- | --- | --- | --- | --- | --- | --- | --- | --- |
| CC(=O)NC[C@H]1CN(c2ccc(N3CCC(O)C3)c(F)c2)C(=O)O1 (stereo partly drawn) [Ex. 5, (S)—N-[[3-[4-(3-hydroxypyrrolidinyl)-3-fluorophenyl]-2-oxo-5-oxazolidinyl]methyl]acetamide, reference compound] | 2 (≈ 5.93 µM) | 2 (≈ 5.93 µM) | 2 (≈ 5.93 µM) | 2 (≈ 5.93 µM) | 4 (≈ 11.9 µM) | 1.2 (≈ 3.56 µM) | 2 (≈ 5.93 µM) | 32 (≈ 94.9 µM) | 1 (≈ 2.96 µM) | 64 (≈ 190 µM) | 64 (≈ 190 µM) | 64 (≈ 190 µM) | 2 (≈ 5.93 µM) | 2 (≈ 5.93 µM) | 16 (≈ 47.4 µM) | 1 (≈ 2.96 µM) | 1 (≈ 2.96 µM) | 1 (≈ 2.96 µM) | 32 (≈ 94.9 µM) | 0.5 (≈ 1.48 µM) | MIC [1]: 1.4 µg/mL (≈ 4.15 µM); MIC ([4]; Streptococcus pneumoniae, Table 2, read-out: MIC): 1 µg/mL (≈ 2.96 µM); MIC [7, 35]: 32 µg/mL (≈ 94.9 µM); MIC [24]: 1.7 µg/mL (≈ 5.04 µM); MIC [25]: 2 µg/mL (≈ 5.93 µM); MIC ([26]; Staphylococcus aureus, Table 2, read-out: MIC): 2 µg/mL (≈ 5.93 µM); MIC [27]: 2 µg/mL (≈ 5.93 µM); MIC [28]: 4 µg/mL (≈ 11.9 µM); MIC [29, 35]: 1 µg/mL (≈ 2.96 µM) |
| CC(=O)NC[C@H]1CN(c2ccc(N3CCC(C#N)C3)c(F)c2)C(=O)O1 (stereo partly drawn) [Ex. 1, N-{(5S)-3-[3-fluoro-4-(3-cyanopyrrolidin-1-yl)phenyl]-2-oxo-5-oxazolidinylmethyl}acetamide] | 0.25 (≈ 0.722 µM) | 0.125 (≈ 0.361 µM) | 0.5 (≈ 1.44 µM) | 1 (≈ 2.89 µM) | 1 (≈ 2.89 µM) | 0.4 (≈ 1.15 µM) | 0.25 (≈ 0.722 µM) | 8 (≈ 23.1 µM) | 0.5 (≈ 1.44 µM) | 32 (≈ 92.4 µM) | 32 (≈ 92.4 µM) | 32 (≈ 92.4 µM) | 0.25 (≈ 0.722 µM) | 0.25 (≈ 0.722 µM) | 4 (≈ 11.5 µM) | 0.25 (≈ 0.722 µM) | 0.5 (≈ 1.44 µM) | 0.25 (≈ 0.722 µM) | 8 (≈ 23.1 µM) | 0.25 (≈ 0.722 µM) | MIC [4, 36]: 0.25 µg/mL (≈ 0.722 µM); MIC ([4]; Table 2): 0.25 µg/mL (≈ 0.722 µM); MIC [7, 37]: 8 µg/mL (≈ 23.1 µM); MIC ([7]; Table 2): 8 µg/mL (≈ 23.1 µM); MIC [30]: 2 µg/mL (≈ 5.77 µM); MIC [31]: 4 µg/mL (≈ 11.5 µM); MIC [24]: 0.3 µg/mL (≈ 0.866 µM); MIC [25]: 1 µg/mL (≈ 2.89 µM); MIC [26, 38]: 0.5 µg/mL (≈ 1.44 µM); MIC ([26]; Table 2): 0.5 µg/mL (≈ 1.44 µM); MIC [32]: 4 µg/mL (≈ 11.5 µM); MIC [27]: 0.5 µg/mL (≈ 1.44 µM); MIC [33]: 0.5 µg/mL (≈ 1.44 µM); MIC [28]: 1 µg/mL (≈ 2.89 µM); MIC [29, 37]: 0.25 µg/mL (≈ 0.722 µM); MIC ([29]; Table 2): 0.25 µg/mL (≈ 0.722 µM) |
| CC(=O)NC[C@H]1CN(c2ccc(N3CCOCC3)c(F)c2)C(=O)O1 [Linezolid, N-[[(5S)-3-[3-fluoro-4-(4-morpholinyl)phenyl]-2-oxo-5-oxazolidinyl]methyl]acetamide, reference compound] |  |  |  |  |  |  |  |  |  |  |  |  |  |  |  |  |  |  |  |  | MIC [4, 36]: 1 µg/mL (≈ 2.96 µM); MICs [34]: 2 to 8 µg/mL; MIC [7, 37]: 64 µg/mL (≈ 190 µM); MIC [30]: 2 µg/mL (≈ 5.93 µM); MIC [31]: 16 to 32 µg/mL (≈ 47.4 to 94.9 µM); MIC [26, 38]: 1 µg/mL (≈ 2.96 µM); MIC [32]: 16 µg/mL (≈ 47.4 µM); MIC [33]: 2 µg/mL (≈ 5.93 µM); MIC [29, 37]: 0.5 µg/mL (≈ 1.48 µM) |
